Measured values as given in PMC9921851, “Synthesis and Preclinical Evaluation of Three Novel ^68Ga-Labeled Bispecific PSMA/FAP-Targeting Tracers for Prostate Cancer Imaging” (Molecules, 2023).
Read-outs that look alike come from different tables or passages of the source.

Experiments:
[1] = system: PSMA-expressing LNCaP tumor xenografts; set-up: method as in earlier work; conditions: LNCaP tumor-bearing mice, 1 h post injection, reported previously, ref 4 (supplement); cited from earlier work
[2] = system: FAP-expressing HEK293T:hFAP tumor xenografts; assay: Ex vivo biodistribution in HEK293T:hFAP tumor-bearing mice; conditions: 1 h post injection, mean ± SD, n = 4
Description: Biodistribution studies were also conducted at 1 h post injection with [^68Ga]Ga-AV01017, [^68Ga]Ga-AV01030, [^68Ga]Ga-AV01038, [^68Ga]Ga-HTK03041, and [^68Ga]Ga-FAPI-04 in HEK293T:hFAP tumor-bearing mice (Figure 6 and Table S5, Supplementary Materials). Tumor uptake values for [^68Ga]Ga-AV01017, [^68Ga]Ga-AV01030, [^68Ga]Ga-AV01038, [^68Ga]Ga-HTK03041, and [^68Ga]Ga-FAPI-04 were 2.99 ± 0.37, 3.69 ± 0.81, 3.64 ± 0.83, 0.62 ± 0.19, and 12.5 ± 2.00 %ID/g, respectively. There was a very low tumor uptake in mice injected with [^68Ga]Ga-HTK03041, showing very minimal FAP expression in this tumor model. The uptake levels of these tracers on the major organs and tissues are consistent with the trends observed in the LNCaP tumor-baring mice (Figure 5 and Supplemental Table S4).
(§1) Imaging and biodistribution studies were performed using male NOD.Cg-Rag1tm1Mom Il2rgtm1Wjl/SzJ (NRG) mice following previously published procedures. The experiments were conducted according to the guidelines established by the Canadian Council on Animal Care and approved by Animal Ethics Committee of the University of British Columbia. The mice were briefly sedated by inhalation of 2.5% isoflurane in oxygen, and 100 µL LNCaP (2 × 10^5 cells) or HEK293T:hFAP (8.5 × 10^6 cells) cells were inoculated subcutaneously behind the left shoulder. When the tumor grew to 5–8 mm in diameter over 3–4 weeks and 4–5 weeks for HEK293T:hFAP and LNCaP tumors, respectively, the mice were used for PET/CT imaging and biodistribution studies.
(§2) For biodistribution studies, the mice were injected with the radiotracer (~2–4 MBq) as described above. At 1 h post injection, the mice were euthanized by CO2 inhalation. Blood was withdrawn by cardiac puncture, and organs/tissues of interest were collected, weighed, and counted using a Perkin Elmer (Waltham, MA, USA) Wizard2 2480 automatic gamma counter.

PSMA = molecular target: T1, PSMA (Homo sapiens, UniProt Q04609); assay: In vitro PSMA competition binding assay ([^18F]DCFPyL displacement on LNCaP cells); conditions: radioligand [^18F]DCFPyL, n = 3
T1 construct: endogenous in cells; host or cells: LNCaP cells (ATCC via Cedarlane)
T1 sequence (Q04609 whole entry): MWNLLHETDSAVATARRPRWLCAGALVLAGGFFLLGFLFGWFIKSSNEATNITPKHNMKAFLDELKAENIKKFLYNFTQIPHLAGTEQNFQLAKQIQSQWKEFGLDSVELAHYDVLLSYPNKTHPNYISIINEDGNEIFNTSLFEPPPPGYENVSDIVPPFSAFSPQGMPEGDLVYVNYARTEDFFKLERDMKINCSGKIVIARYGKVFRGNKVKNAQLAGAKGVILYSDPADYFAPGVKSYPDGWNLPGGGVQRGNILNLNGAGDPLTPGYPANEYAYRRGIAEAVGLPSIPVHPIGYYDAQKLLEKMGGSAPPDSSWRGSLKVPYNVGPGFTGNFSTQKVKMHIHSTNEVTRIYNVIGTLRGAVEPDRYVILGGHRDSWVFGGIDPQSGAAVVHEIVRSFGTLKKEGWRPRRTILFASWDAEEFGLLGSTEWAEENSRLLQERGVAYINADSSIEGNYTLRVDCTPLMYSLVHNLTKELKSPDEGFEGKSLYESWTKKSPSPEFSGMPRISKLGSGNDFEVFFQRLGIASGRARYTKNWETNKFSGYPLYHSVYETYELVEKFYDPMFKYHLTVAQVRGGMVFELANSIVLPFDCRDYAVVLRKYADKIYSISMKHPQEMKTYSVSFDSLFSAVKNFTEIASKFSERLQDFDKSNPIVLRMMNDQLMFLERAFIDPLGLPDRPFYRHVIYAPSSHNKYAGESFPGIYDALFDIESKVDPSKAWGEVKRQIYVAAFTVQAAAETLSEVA
Description: The binding affinities of Ga-AV01017, Ga-AV01030, Ga-AV01038, Ga-HTK03041, and Ga-FAPI-04 to PSMA were measured by a cell-based binding assay using PSMA-expressing LNCaP prostate cancer cells. The nonradioactive Ga-complexed standards, except Ga-FAPI-04, inhibited the binding of [^18F]DCFPyL to LNCaP cells in a dose-dependent manner (Figure 3A).
The PSMA binding assays were conducted following previously published procedures using LNCaP cells and [^18F]DCFPyL as the radioligand [34, 42, 43]. Data analyses of IC50 were performed using the nonlinear regression algorithm of GraphPad Prism 7 (San Diego, CA, USA) software.

[3] = system: PSMA-expressing LNCaP tumor xenografts; assay: Ex vivo biodistribution in LNCaP tumor-bearing mice; conditions: LNCaP tumor-bearing mice, 1 h post injection, mean ± SD, n = 4
Description: Biodistribution studies were conducted at 1 h post injection with ^68Ga-labeled AV01017, AV01030, AV01038, HTK03041, and FAPI-04 in LNCaP tumor-bearing mice (Figure 5 and Table S4, Supplementary Materials). The results were consistent with the observation from their PET images. Tumor uptake values for [^68Ga]Ga-AV01017, [^68Ga]Ga-AV01030, [^68Ga]Ga-AV01038, [^68Ga]Ga-HTK03041, and [^68Ga]Ga-FAPI-04 were 4.38 ± 0.55, 5.17 ± 0.51, 4.25 ± 0.86, 23.1 ± 6.11, and 3.15 ± 1.43 %ID/g, respectively. […] Although not statistically significant, the bispecific tracers with a longer linker tend to have a higher blood uptake value (9.24 ± 1.55 %ID/g for [^68Ga]Ga-AV01017; 7.07 ± 0.31%ID/g for [^68Ga]Ga-AV01038; 5.75 ± 0.59 %ID/g for [^68Ga]Ga-AV01030) and a lower tumor-to-blood ratio (0.48 ± 0.11 for [^68Ga]Ga-AV01017; 0.60 ± 0.13 for [^68Ga]Ga-AV01038; 0.89 ± 0.03 for [^68Ga]Ga-AV01030).
as §1, §2

**Q.** What does the source list for `O=C([O-])CN1CCN(CC(=O)[O-])CCN(CC(=O)NC[C@H]2CC[C@H](C(=O)N[C@@H](Cc3c4ccccc4cc4ccccc34)C(=O)NCCCC[C@H](NC(=O)N[C@@H](CCC(=O)O)C(=O)O)C(=O)O)CC2)CCN(CC(=O)[O-])CC1.[68Ga+3]` [[^68Ga]Ga-HTK03041, reference compound]?
**A.** Blood uptake [1]: 1.43 ± 0.30 %ID/g; Bone uptake [1]: 1.29 ± 0.45 %ID/g; Brain uptake [1]: 0.10 ± 0.05 %ID/g; Fat uptake [1]: 2.06 ± 0.59 %ID/g; Heart uptake [1]: 1.82 ± 0.62 %ID/g; Kidneys uptake [1]: 170 ± 26.4 %ID/g; LNCaP tumor uptake [1]: 23.1 ± 6.11 %ID/g; Liver uptake [1]: 1.38 ± 0.25 %ID/g; Muscle uptake [1]: 0.75 ± 0.09 %ID/g; Pancreas uptake [1]: 1.47 ± 0.16 %ID/g; Small Intestine uptake [1]: 1.14 ± 0.18 %ID/g; Spleen uptake [1]: 8.95 ± 3.22 %ID/g; Stomach uptake [1]: 0.41 ± 0.11 %ID/g; Testes uptake [1]: 1.34 ± 0.22 %ID/g; Thyroid uptake [1]: 2.48 ± 0.44 %ID/g; Tumor/blood uptake ratio [1]: 17.3 ± 7.24; Tumor/bone uptake ratio [1]: 20.1 ± 9.48; Tumor/kidney uptake ratio [1]: 0.14 ± 0.04; Tumor/muscle uptake ratio [1]: 31.6 ± 12.1; Adrenal glands uptake [2]: 4.18 ± 0.48 %ID/g; Blood uptake [2]: 0.71 ± 0.07 %ID/g; Bone uptake [2]: 0.42 ± 0.11 %ID/g; Brain uptake [2]: 0.03 ± 0.00 %ID/g; Fat uptake [2]: 0.55 ± 0.12 %ID/g; HEK293T:hFAP tumor uptake [2]: 0.62 ± 0.19 %ID/g; Heart uptake [2]: 0.98 ± 0.07 %ID/g; Kidneys uptake [2]: 68.4 ± 19.2 %ID/g; Lacrimal gland uptake [2]: 0.25 ± 0.33 %ID/g; Large Intestine uptake [2]: 0.43 ± 0.04 %ID/g; Liver uptake [2]: 0.72 ± 0.06 %ID/g; Lungs uptake [2]: 2.43 ± 0.08 %ID/g; Muscle uptake [2]: 0.47 ± 0.03 %ID/g; Pancreas uptake [2]: 0.71 ± 0.07 %ID/g; Salivary glands uptake [2]: 2.29 ± 0.16 %ID/g; Seminal vesicle uptake [2]: 0.32 ± 0.03 %ID/g; Small Intestine uptake [2]: 0.71 ± 0.01 %ID/g; Spleen uptake [2]: 8.09 ± 2.37 %ID/g; Stomach uptake [2]: 0.22 ± 0.04 %ID/g; Testes uptake [2]: 0.60 ± 0.41 %ID/g; Thyroid uptake [2]: 1.38 ± 0.10 %ID/g; Tumor/blood uptake ratio [2]: 0.83 ± 0.54; Tumor/bone uptake ratio [2]: 1.39 ± 0.58; Tumor/kidney uptake ratio [2]: 0.01 ± 0.01; Tumor/muscle uptake ratio [2]: 1.22 ± 0.73

**Q.** With `N#C[C@@H]1CC(F)(F)CN1C(=O)CNC(=O)c1ccnc2ccc(OCCCN3CCN(C(=O)CN4CCN(CC(=O)[O-])CCN(CC(=O)[O-])CCN(CC(=O)[O-])CC4)CC3)cc12.[Ga+3]` [Ga-FAPI-04, reference compound] as the compound, how does the IC50 (PSMA) read?
**A.** The IC50 was > 1000 nM.

**Q.** What does the source list for `N#C[C@@H]1CC(F)(F)CN1C(=O)CNC(=O)c1ccnc2ccc(OCCCN3CCN(C(=O)CN4CCN(CC(=O)[O-])CCN(CC(=O)[O-])CCN(CC(=O)[O-])CC4)CC3)cc12.[68Ga+3]` [[^68Ga]Ga-FAPI-04, reference compound]?
**A.** Adrenal glands uptake [2]: 1.07 ± 0.32 %ID/g; Blood uptake [2]: 1.07 ± 0.08 %ID/g; Bone uptake [2]: 3.36 ± 1.09 %ID/g; Brain uptake [2]: 0.04 ± 0.00 %ID/g; Fat uptake [2]: 0.10 ± 0.01 %ID/g; HEK293T:hFAP tumor uptake [2]: 12.5 ± 2.00 %ID/g; Heart uptake [2]: 0.34 ± 0.04 %ID/g; Kidneys uptake [2]: 1.83 ± 0.16 %ID/g; Liver uptake [2]: 0.36 ± 0.02 %ID/g; Lungs uptake [2]: 0.74 ± 0.11 %ID/g; Muscle uptake [2]: 0.67 ± 0.05 %ID/g; Pancreas uptake [2]: 0.37 ± 0.05 %ID/g; Seminal vesicle uptake [2]: 0.15 ± 0.04 %ID/g; Small Intestine uptake [2]: 0.36 ± 0.08 %ID/g; Spleen uptake [2]: 0.56 ± 0.11 %ID/g; Stomach uptake [2]: 0.07 ± 0.01 %ID/g; Testes uptake [2]: 0.28 ± 0.04 %ID/g; Tumor/blood uptake ratio [2]: 11.7 ± 2.04; Tumor/bone uptake ratio [2]: 3.93 ± 1.16; Tumor/kidney uptake ratio [2]: 6.85 ± 1.33; Tumor/muscle uptake ratio [2]: 18.8 ± 4.09; Adrenal glands uptake [3]: 2.16 ± 1.08 %ID/g; Blood uptake [3]: 2.16 ± 0.33 %ID/g; Bone uptake [3]: 4.27 ± 0.74 %ID/g; Brain uptake [3]: 0.06 ± 0.00 %ID/g; Fat uptake [3]: 0.55 ± 0.47 %ID/g; Heart uptake [3]: 0.70 ± 0.04 %ID/g; Kidneys uptake [3]: 2.36 ± 0.38 %ID/g; LNCaP tumor uptake [3]: 3.15 ± 1.43 %ID/g; Lacrimal glands uptake [3]: 0.06 ± 0.07 %ID/g; Large Intestine uptake [3]: 0.73 ± 0.09 %ID/g; Liver uptake [3]: 0.76 ± 0.08 %ID/g; Lungs uptake [3]: 1.23 ± 0.07 %ID/g; Muscle uptake [3]: 1.04 ± 0.20 %ID/g; Pancreas uptake [3]: 0.99 ± 0.25 %ID/g; Salivary glands uptake [3]: 1.36 ± 0.92 %ID/g; Seminal vesicle uptake [3]: 3.72 ± 5.09 %ID/g; Small Intestine uptake [3]: 0.74 ± 0.12 %ID/g; Spleen uptake [3]: 0.67 ± 0.11 %ID/g; Stomach uptake [3]: 0.26 ± 0.04 %ID/g; Testes uptake [3]: 0.42 ± 0.04 %ID/g; Thyroid uptake [3]: 3.62 ± 1.01 %ID/g; Tumor/blood uptake ratio [3]: 1.04 ± 0.42; Tumor/bone uptake ratio [3]: 0.51 ± 0.28; Tumor/kidney uptake ratio [3]: 0.90 ± 0.28; Tumor/muscle uptake ratio [3]: 2.30 ± 0.79
